Like-named read-outs stand apart in the source and are kept apart here.
Tested on: H1N1 (influenza A/New Caledonia/20/99)
Assay: Antiviral effect on A549 cells infected with H1N1 (MUNANA neuraminidase readout)
Type: cell-based
Details: H1N1 A/New Caledonia/20/99 at MOI 0.1, 48 h post-infection, MUNANA fluorescence
Experimental: The antiviral effect of the compounds of the invention have been tested on A549 cell lines infected with H1N1 (influenza A/New Caledonia/20/99).
Human A549 cells (80,000 cells/well in a 96 well plate) were treated with a range of concentration of test compounds and immediately infected by H1N1 A/New Caledonia/20/99 virus (clinical isolate) at MOI of 0.1 in DMEM/1% Penicillin/streptomycin supplemented with 0.25 μg/ml TPCK trypsin (Sigma) and incubated at 37° C. in 5% CO2. 48 h post-infection, supernatants (25 μl) were collected and transferred into a 96-well black flat-bottom plate, mixed with 25 μl PBS with Ca++/Mg++(Thermo Fisher) and 50 μl of 2′-(4-Methylumbelliferyl)-α-D-N-acetylneuraminic acid sodium salt hydrate stock-solution (20 μM, MUNANA, Sigma). Plates were incubated 1 h at 37° C. and reaction is stopped by adding 100 μl of Stop Solution (glycine 0.1 M pH10.7/25% ethanol). The amount of fluorescent product released by MUNANA hydrolysis (4-MU) was measured in a Tecan spectrophotometer with excitation and emission wavelengths of 365 and 450 nm respectively.

[1] = Influenza A virus, H1N1, A549, 48 h, read-out: IC50
[2] = Influenza A virus, H1N1, A549, 48 h

SMILES	IC50 [1] [nM]	other results
O=C(Nc1scc(C2CCc3ccccc3C2)c1C(=O)O)c1cccc(N2CCOCC2)c1 (centres unmarked) [#70]	7.5	
O=C(Nc1scc(C2CCc3ccccc3C2)c1C(=O)O)c1ccc(N2C3COCC2C3)cc1 (centres unmarked) [#150]	1	
COC1CN(c2ccc(C(=O)Nc3scc(C4CCc5ccccc5C4)c3C(=O)O)cc2)C1 (centres unmarked) [#53]	4	
O=C(Nc1scc(C2CCc3ccccc3C2)c1C(=O)O)c1ccc2c(c1)CCCO2 (centres unmarked) [#181]	2	
COC1CN(c2cccc(C(=O)Nc3scc(C4CCc5ccccc5C4)c3C(=O)O)c2)C1 (centres unmarked) [#93]	8	
O=C(Nc1scc(C2CCc3ccccc3C2)c1C(=O)O)c1ccc(OC2CCC2)cc1 (centres unmarked) [#178]	122	
C[C@@H]1COC[C@H](C)N1c1ccc(C(=O)Nc2scc(C3CCc4ccccc4C3)c2C(=O)O)cc1 (some centres unmarked) [#149]	29	
COc1cc(C(=O)Nc2scc(C3CCc4ccccc4C3)c2C(=O)O)ccc1NCC1CCOCC1 (centres unmarked) [#127]	1.8	
O=C(Nc1scc(-c2ccc3c(c2)CCCC3)c1C(=O)O)c1ccc(F)cc1 [#125]	237	
O=C(Nc1scc(C2CCc3ccccc3C2)c1C(=O)O)c1ccc(N2C3CCC2COC3)cc1 (centres unmarked) [#144]	4	
O=C(Nc1scc(C2CCc3ccccc32)c1C(=O)O)c1ccc(NC2CCOCC2)cc1 (centres unmarked) [#55]	33.8	
O=C(Nc1scc(C2CCc3ccccc3C2)c1C(=O)O)c1cccc(OC(F)F)c1 (centres unmarked) [#170]	18	
O=C(Nc1scc(C2CCc3ccccc3C2)c1C(=O)O)c1ccc(N2CCCS2(=O)=O)cc1 (centres unmarked) [#184]		IC50 [2]: 32 nM
O=C(Nc1scc(C2CCc3ccccc3C2)c1C(=O)O)c1ccc(NCC2CCCCC2)cc1 (centres unmarked) [#128]	0.8	
O=C(Nc1scc(C2CCc3ccccc3C2)c1C(=O)O)c1ccc2c(c1)CCO2 (centres unmarked) [#177]	35	
COc1ccc(C(=O)Nc2scc(C3CCc4ccccc4C3)c2C(=O)O)cc1 (centres unmarked) [#154]	2.7	
O=C(Nc1sc(Cl)c(C2Cc3ccccc3C2)c1C(=O)O)c1ccccc1 [#8]	187	
O=C(Nc1scc(C2CCc3ccccc3C2)c1C(=O)O)c1ccc(OC(F)(F)F)cc1 (centres unmarked) [#153]	0.4	
O=C(O)c1c(C2CCc3ccccc3C2)csc1NC(=O)C12CC(F)(C1)C2 (centres unmarked) [#193]	315	
C[C@@H]1CN(c2ccc(C(=O)Nc3scc(C4CCc5ccccc5C4)c3C(=O)O)cc2)C[C@H](C)O1 (some centres unmarked) [#148]	24	
O=C(Nc1scc(C2CCc3ccccc3C2)c1C(=O)O)c1ccc(NCCCCO)cc1 (centres unmarked) [#133]	50	
O=C(Nc1scc(C2CCc3ccccc3C2)c1C(=O)O)c1ccccc1N1CCOCC1 (centres unmarked) [#129]	460	
O=C(Nc1scc(C2CCc3ccccc32)c1C(=O)O)c1ccc(N2CCOCC2)cc1 (centres unmarked) [#56]	110	
C[C@@H]1COCCN1c1ccc(C(=O)Nc2scc(C3CCc4ccccc4C3)c2C(=O)O)cc1 (some centres unmarked) [#145]	32	
O=C(Nc1scc(C2CCc3ccccc3C2)c1C(=O)O)c1ccccn1 (centres unmarked) [#186]	134	
O=C(Nc1scc(C2CCc3ccccc3C2)c1C(=O)O)c1ccc(NCC2CCOCC2)cc1 (centres unmarked) [#69]	3	
O=C(Nc1scc(C2CCc3ccccc3C2)c1C(=O)O)c1cccc(Cl)c1 (centres unmarked) [#167]	75	

SMILES	IC50 [1] [nM]	other results
O=C(Nc1scc(C2CCc3ccccc3C2)c1C(=O)O)c1ccc(N2CCOCC2)cc1 (centres unmarked) [#68]	52	
O=C(Nc1scc(C2CCc3ccccc3C2)c1C(=O)O)c1ccc(F)cc1 (centres unmarked) [#171]		IC50 (read-out: IC50): 6 nM
O=C(Nc1scc(C2CCc3ccccc3C2)c1C(=O)O)c1ccccc1F (centres unmarked) [#163]	43	
O=C(Nc1scc(C2CCc3ccccc3C2)c1C(=O)O)c1cccc(F)c1 (centres unmarked) [#169]	162	
CN(CC1CCOCC1)c1ccc(C(=O)Nc2scc(C3CCc4ccccc4C3)c2C(=O)O)cc1 (centres unmarked) [#132]	2	
COc1cc(C(=O)Nc2scc(C3CCc4ccccc4C3)c2C(=O)O)ccc1F (centres unmarked) [#164]	8	
O=C(Nc1scc(C2CCc3ccccc3C2)c1C(=O)O)c1ccc(NCC2(O)CCOCC2)cc1 (centres unmarked) [#136]	30	
COc1ccccc1C(=O)Nc1scc(C2CCc3ccccc3C2)c1C(=O)O (centres unmarked) [#159]	100	
O=C(Nc1scc(C2CCc3ccccc3C2)c1C(=O)O)c1ccc(N2C[C@H]3C[C@@H]2CO3)cc1 (some centres unmarked) [#141]	2.7	
O=C(Nc1scc(-c2ccc3c(c2)CCC3)c1C(=O)O)c1ccccc1 [#3]	280	
C[C@H]1COCCN1c1ccc(C(=O)Nc2scc(C3CCc4ccccc4C3)c2C(=O)O)cc1 (some centres unmarked) [#146]	0.5	
CC1(C)Cc2cc(C(=O)Nc3scc(C4CCc5ccccc5C4)c3C(=O)O)ccc2O1 (centres unmarked) [#179]	29	
COC1CN(c2ccc(C(=O)Nc3scc(C4CCc5ccccc54)c3C(=O)O)cc2)C1 (centres unmarked) [#58]	100	
C[C@H]1CN(c2ccc(C(=O)Nc3scc(C4CCc5ccccc5C4)c3C(=O)O)cc2)CCO1 (some centres unmarked) [#143]	4	
C[C@@H]1CN(c2ccc(C(=O)Nc3scc(C4CCc5ccccc5C4)c3C(=O)O)cc2)CCO1 (some centres unmarked) [#147]	8	
O=C(Nc1scc(C2CCc3ccccc3C2)c1C(=O)O)c1ccccc1 (centres unmarked) [#157]		IC50 (read-out: IC50): 7 nM
O=C(Nc1scc(C2CCc3ccccc3C2)c1C(=O)O)c1ccc(NC(CO)C2CCOCC2)cc1 (centres unmarked) [#131]	110	
O=C(Nc1scc(C2=Cc3ccccc3CC2)c1C(=O)O)c1ccccc1 [#185]	260	
O=C(Nc1scc(C2CCc3ccccc3C2)c1C(=O)O)c1ccccc1 (centres unmarked) [#156]		IC50 (read-out: IC50): 185 nM
COCCNc1ccc(C(=O)Nc2scc(C3CCc4ccccc4C3)c2C(=O)O)cc1 (centres unmarked) [#65]	4	
O=C(Nc1scc(C2CCCc3ccccc32)c1C(=O)O)c1ccc(F)cc1 (centres unmarked) [#126]	237	
O=C(Nc1sc(Cl)c(C2CCc3ccccc32)c1C(=O)O)c1ccccc1 (centres unmarked) [#49]	130	
COc1cc(C(=O)Nc2scc(C3CCc4ccccc4C3)c2C(=O)O)cc(OC)c1NCC1CCOCC1 (centres unmarked) [#137]	4.2	
CS(=O)(=O)c1ccc(C(=O)Nc2scc(C3CCc4ccccc4C3)c2C(=O)O)cc1 (centres unmarked) [#165]	900	
CC(C)(C)Oc1ccc(C(=O)Nc2scc(C3CCc4ccccc4C3)c2C(=O)O)cc1 (centres unmarked) [#188]	15	
O=C(Nc1scc(C2CCc3ccccc3C2)c1C(=O)O)c1ccc(OC(F)F)cc1 (centres unmarked) [#175]		IC50 (read-out: IC50): 14 nM
O=C(Nc1scc(C2CCc3ccccc3C2)c1C(=O)O)c1ccc(Cl)cc1 (centres unmarked) [#161]	16	

SMILES	IC50 [1] [nM]	other results
O=C(O)c1c(C2CCc3ccccc3C2)csc1NC(=O)C12CC(C1)C2 (centres unmarked) [#192]	347	
O=C(Nc1scc(C2CCc3ccccc3C2)c1C(=O)O)c1ccc2c(c1)OCCO2 (centres unmarked) [#176]	76	
O=C(Nc1scc(C2CCc3ccccc3C2)c1C(=O)O)c1ccc(OC(F)F)cc1 (centres unmarked) [#174]		IC50 (read-out: IC50): 0.3 nM
O=C(Nc1scc(C2CCc3ccccc3C2)c1C(=O)O)c1ccc(OC2CCOCC2)cc1 (centres unmarked) [#182]		IC50 [2]: 3 nM
O=C(Nc1scc(C2CCc3ccccc3C2)c1C(=O)O)c1ccc(NC2CCOCC2)cc1 (centres unmarked) [#52]	0.4	
COc1ccc(C(=O)Nc2scc(C3CCc4ccccc4C3)c2C(=O)O)cc1OC (centres unmarked) [#155]	3	
O=C(Nc1scc(C2CCc3ccccc3C2)c1C(=O)O)c1cnc(N2CCOCC2)nc1 (centres unmarked) [#89]	240	
COc1ccc(C(=O)Nc2scc(C3CCc4ccccc4C3)c2C(=O)O)nc1 (centres unmarked) [#187]	15	
O=C(Nc1scc(-c2ccc3c(c2)CCCC3)c1C(=O)O)c1ccccc1 [#123]	133	
O=C(Nc1scc(C2Cc3ccccc3C2)c1C(=O)O)c1ccccc1 [#7]	144	
O=C(Nc1scc(C2CCc3cc(F)ccc3C2)c1C(=O)O)c1ccccc1 (centres unmarked) [#191]	46	
O=C(Nc1scc(C2CCc3ccc(F)cc3C2)c1C(=O)O)c1ccccc1 (centres unmarked) [#189]	178	
O=C(Nc1scc(C2CCc3ccccc3C2)c1C(=O)O)c1ccc(F)cc1 (centres unmarked) [#172]		IC50 (read-out: IC50): 617 nM
N#Cc1ccc(C(=O)Nc2scc(C3CCc4ccccc4C3)c2C(=O)O)cc1 (centres unmarked) [Compound #183, 2-[(4-Cyanobenzoyl)amino]-4-tetralin-2-yl-thiophene-3-carboxylic acid]		IC50 [2]: 462 nM
O=C(Nc1scc(C2CCc3c(F)cccc3C2)c1C(=O)O)c1ccccc1 (centres unmarked) [#190]	8	
O=C(Nc1scc(C2CCc3ccccc3C2)c1C(=O)O)c1ccc(N2CC3CC(C2)O3)cc1 (centres unmarked) [#139]	15	
O=C(Nc1scc(C2CCc3ccccc3C2)c1C(=O)O)c1ccc(N2CCCC2=O)cc1 (centres unmarked) [#168]	11	
O=C(Nc1sc(C2CC2)c(C2Cc3ccccc3C2)c1C(=O)O)c1ccccc1 [#51]	52	
O=C(Nc1scc(C2CCc3ccccc3C2)c1C(=O)O)c1ccc(NCC2CCOCC2)c(O)c1 (centres unmarked) [#134]	24	
COCCCNc1ccc(C(=O)Nc2scc(C3CCc4ccccc4C3)c2C(=O)O)cc1 (centres unmarked) [#64]	3.3	
COCCCCNc1ccc(C(=O)Nc2scc(C3CCc4ccccc4C3)c2C(=O)O)cc1 (centres unmarked) [#135]	3	
O=C(Nc1scc(C2CCc3ccccc3C2)c1C(=O)O)c1ccc(N2CC3CCC(C2)O3)cc1 (centres unmarked) [#142]	0.3	
O=C(Nc1scc(C2CCc3ccccc3C2)c1C(=O)O)c1ccccc1CN1CCOCC1 (centres unmarked) [#130]	560	
Cc1ccc(C(=O)Nc2scc(C3CCc4ccccc4C3)c2C(=O)O)cc1 (centres unmarked) [#166]	39	
O=C(Nc1scc(C2CCc3ccccc3CC2)c1C(=O)O)c1ccccc1 [#122]	744	
COCCOc1ccc(C(=O)Nc2scc(C3CCc4ccccc4C3)c2C(=O)O)cc1 (centres unmarked) [#101]	44.6	
